What was measured:
TLR7/8 [1] = test: Cytokine production in human PBMCs stimulated with TLR7 agonist, let7c miRNA or let7/DOTAP in the presence of TLR7/8 antagonist; assay type: cell-based
Method: Human PBMCs were treated with TLR7 agonist (TLR7), let7c miRNA or transfected with let7c miRNA (let7/DOTAP) in the presence of TLR7/8 antagonist (Compound 467 in Table 1 above). Levels of IL-6 (FIG. 3) and IFNα (FIG. 4) were measured following overnight incubation.

TLR7/8 [2] = test: Activation of human PBMCs by LL37 alone or in complex with GU trimer or let-7c miRNA, with or without TLR7/8 inhibitor; assay type: cell-based
Method: Binding of LL37 to miRNA enables delivery of miRNA to human PBMCs and stimulate TLR7/8-mediated production of cytokines. Human recombinant LL37 protein was used alone, or in a complex with GU trimer or let-7c miRNA to activate human PBMCs in the presence or absence of TLR7/8 inhibitor (Compound 467 in Table 1 above). Levels of IL-6 (FIG. 5) and IFNα (FIG. 6) were measured following overnight incubation.

C[C@@H]1CN(c2ccc(C#N)c3nccnc23)C[C@H](CN2CCC(N3CCOCC3)CC2)O1 [Compound 467]
levels of IL-6 induced by let-7 miRNA (TLR7/8 [1]; overnight incubation (FIG. 3)): blocks production of cytokines
levels of IFNα induced by let-7 miRNA (TLR7/8 [1]; overnight incubation (FIG. 4)): blocks production of cytokines
TLR7/8 activation by LL37-RNA complexes, levels of IL-6 (TLR7/8 [2]; overnight incubation (FIG. 5)): the activation is suppressed
TLR7/8 activation by LL37-RNA complexes, levels of IFNα (TLR7/8 [2]; overnight incubation (FIG. 6)): the activation is suppressed
